# Test results taken from article PMC2270815, “Inhibition of 11βHSD1 with the S-phenylethylaminothiazolone BVT116429 increases adiponectin concentrations and improves glucose homeostasis in diabetic KKA^y mice” (BMC Pharmacology, 2008).
# Assays:
# [1] = molecular target: T1, 11β HSD1 (11β-hydroxysteroid dehydrogenase type 1) (Homo sapiens, UniProt P28845); assay: in vitro enzyme inhibition assay with purified recombinant enzyme; type: biochemical
# T1 construct: gene HSD11B1; purified recombinant human 11β HSD1
# T1 sequence (P28845 whole entry): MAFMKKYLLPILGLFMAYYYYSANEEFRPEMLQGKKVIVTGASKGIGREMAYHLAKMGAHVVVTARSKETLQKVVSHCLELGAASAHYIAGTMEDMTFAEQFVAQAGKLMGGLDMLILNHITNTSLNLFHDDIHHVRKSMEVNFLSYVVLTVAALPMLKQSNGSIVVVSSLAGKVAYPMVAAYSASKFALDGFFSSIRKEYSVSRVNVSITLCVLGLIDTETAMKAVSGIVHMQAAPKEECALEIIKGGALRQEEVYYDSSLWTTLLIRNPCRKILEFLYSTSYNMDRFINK
# [2] = molecular target: T2, 11β HSD1 (11β-hydroxysteroid dehydrogenase type 1) (Mus musculus, UniProt P50172); assay: as above; type: biochemical
# T2 construct: gene Hsd11b1; purified recombinant mouse 11β HSD1
# T2 sequence (P50172 whole entry): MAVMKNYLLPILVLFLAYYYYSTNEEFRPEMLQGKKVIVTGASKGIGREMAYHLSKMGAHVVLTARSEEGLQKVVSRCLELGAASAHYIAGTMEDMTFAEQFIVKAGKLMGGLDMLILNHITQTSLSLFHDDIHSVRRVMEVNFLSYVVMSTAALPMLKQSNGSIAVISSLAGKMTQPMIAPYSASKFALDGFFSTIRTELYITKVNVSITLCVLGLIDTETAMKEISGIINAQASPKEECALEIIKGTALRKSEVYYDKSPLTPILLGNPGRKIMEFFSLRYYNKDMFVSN
smiles,measurement,setting,value
"C[C@H](NC1=NC(=O)[C@@](C)(C(F)(F)F)S1)c1ccccc1F [BVT116429, (S)-2-((S)-1-(2-fluorophenyl)ethylamino)-5-methyl-5-(trifluoromethyl)thiazol-4(5H)-one]",Ki,[1],29 nM
same,Ki,[2],36 nM
